Patent US20050003455A1, “Remedies for heart diseases” (priority 2001, published 2005)

Key:
[1] = system: caspase-3 activity of cultured rat myocardial cells; test: Staurosporine-induced increase in caspase-3 activity of cultured myocardial cells (Caspase-3 Assay Kit, Fluorimetric; AMC formation); type: cell-based; settings: 1 μM staurosporine + 250 μM DIDS, 12-well multiwell plates, FIG. 5
Experimental: The caspase-3 activity of the thus prepared cells was measured with Caspase-3 Assay Kit, Fluorimetric (SIGMA CHEMICAL, Co., St. Louis, Mo., USA).
More specifically, 12-well multiwell plates were cultured for 2 hours after adding a conditioned culture solution, which was then removed and further cultivation was effected for an appropriate period, mostly for 2 hours; thereafter, cell lysates were prepared using Caspase-3 Assay Kit, Fluorimetric; in the subsequent stage, the amount of formation of specific fluorochrome 7-amino-4-methylcoumarin (AMC) was measured by means of a fluorometric microplate reader (SPECTRA Fluor, Wako Pure Chemical Industries, Ltd., Osaka, Japan) according to the procedure of measurement with the Kit; and the amount of AMC formation was used as an index of caspase-3 activity. […]

[2] = system: primary cultures of rat myocardial cells; test: Staurosporine-induced decrease in cell viability (WST-8) in primary cultures of rat myocardial cells; type: cell-based; settings: for cytotoxicity induced in cultured myocardial cells: 1 μM staurosporine, HCO3−-free culture medium versus ordinary culture medium
Source text: The myocardial cells used in the experiments were those of primary cultures from rats. In order to prepare primary cultures of myocardial cells, heart was excised from SD rats at day 20 of pregnancy (purchased from Japan SLC Co., Ltd.) and enzyme-digested with collagenase (Worthington Biochemical Corp.) and trypsin (GIBCO BRL, Gaithersberg, Md.) to isolate myocardial cells and make a cell suspension of them. As an ordinary culture medium, D-MEM supplemented with fetal bovine serum (FBS) to give a concentration of 10% (GIBCO BRL, Gaithersberg, Md.) was employed. For checking to see if Cl^−/HCO3^− anion exchangers (AEs) would be involved in apoptosis in cardiovascular cells and in protection from it, Leibovitz's L-15 Medium supplemented with FBS to give a concentration of 10% (GIBCO BRL, Gaithersberg, Md.) was employed as an HCO3^−-free culture medium and the result from it was compared with the result from the ordinary culture medium. The HCO3^−-free culture medium was employed in order to suppress the function of the Cl^−/HCO3^− anion exchangers by depleting HCO3^−. The Cl^−/HCO3^− anion exchangers are widely distributed in erythrocytes and other tissues, AE1 being expressed primarily in erythrocytes and AE3 in myocardial cells and neurons. By coupling the exclusion of intracellular Cl^− to the outside of cells and intake of extracellular HCO3^− into the cells, the exchangers function as an intracellular Cl^− and pH regulating system and they also work as a cell volume regulating system during regulatory volume increase (RVI). In a pathological context, it is speculated that the exchangers participate in the process of myocardial cells' acidification which accompanies ischemia.
A suspension of myocardial cells at a density of 3-5×10^5 cells/mL was dispensed in 24-well multiwell plates (Falcon) in an amount of 0.5 mL per well, or in 96-well multiwell plates (Falcon) in an amount of 0.1 mL per well, or in 12-well multiwell plates (Falcon) in an mount of 1 mL per well. The plates were placed in a CO2 incubator and cultured in 5% CO2 at 37° C. for 2-3 days. The thus cultured cells were used in subsequent experiments.
A control group consisted of three culture media, a cell-free medium (blank), a cell-containing medium alone (D-MEM) and 0.3% DMSO [D-MEM supplemented with 0.3% DMSO (DOJINDO LABORATORIES, Kumamoto, Japan)]. A test group consisted of three culture media containing a drug or drugs under specified conditions, i.e., a solution of 1 μM staurosporine (Sigma) dissolved in 0.3% DMSO, a mixed solution of the 1 μM staurosporine and 125-1000 μM SITS (SIGMA CHEMICAL Co., St. Louis, Mo., USA), and a mixed solution of the 1 μM staurosporine and 62.5-250 μM DIDS (SIGMA CHEMICAL Co., St. Louis, Mo., USA); the culture media of the test group are hereunder referred to as “conditioned culture media”.
Specifically, after aspirating away a culture medium, a fresh medium of the control group or a conditioned culture medium of interest was added in 24-well multiwell plates in an amount of 0.5 mL/well. After adding the conditioned culture medium, the plates were placed in a CO2 incubator and cultured in 5% CO2 at 37° C. for 2-4 hours. When a conditioned culture medium based on the HCO3^−-free culture medium was added, the plates were placed in an atmospheric incubator and cultured at 37° C. […]

Structure (SMILES) | suppression of the staurosporine-induced increase in caspase-3 activity [1] | suppression of the staurosporine-induced drop in cell viability ([2]; 1 μM staurosporine + 62.5, 125 or 250 μM DIDS, 24-well multiwell plates, FIG. 4) | suppression of the staurosporine-induced decrease in cell viability ([2]; HCO3−-free culture medium, 1 μM staurosporine + 62.5, 125 or 250 μM DIDS, 24-well multiwell plates, FIG. 6) | apoptosis suppressing effect on myocardial cells ([2]; overall conclusion from Examples 1-6) | cytotoxicity induced in cultured myocardial cells ([2]; 24-well multiwell plates, FIG. 6) | cytotoxicity induced in cultured myocardial cells ([2]; 96-well multiwell plates, FIG. 7)
O=S(=O)(O)c1cc(N=C=S)ccc1C=Cc1ccc(N=C=S)cc1S(=O)(=O)O [DIDS, 4,4′-diisothiocyanostilbene-2,2′-disulfonic acid] | suppresses the staurosporine-induced increase in caspase-3 activity | suppresses the drop in cell viability in a dose-dependent manner | suppressed the decrease in cell viability in a dose-dependent manner | exhibit the apoptosis suppressing effect on myocardial cells |  | 
CN[C@@H]1C[C@H]2O[C@@](C)([C@@H]1OC)n1c3ccccc3c3c4c(c5c6ccccc6n2c5c31)C(=O)NC4 [staurosporine] |  |  |  |  | comparable levels of cytotoxicity was induced by staurosporine | comparable levels of cytotoxicity was induced on the 96-well multiwell plates by staurosporine
